{"source": "PubChem BioAssay (NCI)", "experiment_in_all_cases": "NCI tumour cell line growth inhibition, 384-well format", "key": {"MDA-MB-468 breast": {"test_system": "MDA-MB-468 breast"}, "HCC-2998 colon": {"test_system": "HCC-2998 colon"}, "SK-MEL-2 melanoma": {"test_system": "SK-MEL-2 melanoma"}, "SF-268 CNS": {"test_system": "SF-268 CNS"}, "KM12 colon": {"test_system": "KM12 colon"}, "MDA-MB-435 melanoma": {"test_system": "MDA-MB-435 melanoma"}, "HCT-116 colon": {"test_system": "HCT-116 colon"}, "HCT-15 colon": {"test_system": "HCT-15 colon"}, "SW-620 colon": {"test_system": "SW-620 colon"}, "RXF 393 renal": {"test_system": "RXF 393 renal"}, "HT29 colon": {"test_system": "HT29 colon"}, "DU-145 prostate": {"test_system": "DU-145 prostate"}, "SN12C renal": {"test_system": "SN12C renal"}}, "note": "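GI50 = concentration required for 50% inhibition of growth. TGI: concentration producing complete growth inhibition.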", "data": [{"smiles": "CC(=O)N1CCC(Nc2cc(C(=O)NC[C@H](O)CN3CCc4ccccc4C3)ncn2)CC1", "values": [{"measurement": "GI50", "setting": "MDA-MB-468 breast", "value": 29.5, "unit": "µM"}, {"measurement": "TGI", "setting": "MDA-MB-468 breast", "value": "> 100", "unit": "µM"}, {"measurement": "GI50", "setting": "HCC-2998 colon", "value": "> 100", "unit": "µM"}, {"measurement": "TGI", "setting": "HCC-2998 colon", "value": "> 100", "unit": "µM"}, {"measurement": "GI50", "setting": "SK-MEL-2 melanoma", "value": "> 100", "unit": "µM"}, {"measurement": "TGI", "setting": "SK-MEL-2 melanoma", "value": "> 100", "unit": "µM"}, {"measurement": "GI50", "setting": "SF-268 CNS", "value": "> 100", "unit": "µM"}, {"measurement": "TGI", "setting": "SF-268 CNS", "value": "> 100", "unit": "µM"}, {"measurement": "GI50", "setting": "KM12 colon", "value": "> 100", "unit": "µM"}, {"measurement": "TGI", "setting": "KM12 colon", "value": "> 100", "unit": "µM"}, {"measurement": "GI50", "setting": "MDA-MB-435 melanoma", "value": "> 100", "unit": "µM"}, {"measurement": "TGI", "setting": "MDA-MB-435 melanoma", "value": "> 100", "unit": "µM"}, {"measurement": "GI50", "setting": "HCT-116 colon", "value": "> 100", "unit": "µM"}, {"measurement": "TGI", "setting": "HCT-116 colon", "value": "> 100", "unit": "µM"}, {"measurement": "GI50", "setting": "HCT-15 colon", "value": "> 100", "unit": "µM"}, {"measurement": "TGI", "setting": "HCT-15 colon", "value": "> 100", "unit": "µM"}, {"measurement": "GI50", "setting": "SW-620 colon", "value": "> 35.6", "unit": "µM"}, {"measurement": "TGI", "setting": "SW-620 colon", "value": "> 100", "unit": "µM"}, {"measurement": "GI50", "setting": "RXF 393 renal", "value": "> 100", "unit": "µM"}, {"measurement": "TGI", "setting": "RXF 393 renal", "value": "> 100", "unit": "µM"}, {"measurement": "GI50", "setting": "HT29 colon", "value": "> 100", "unit": "µM"}, {"measurement": "TGI", "setting": "HT29 colon", "value": "> 100", "unit": "µM"}, {"measurement": "GI50", "setting": "DU-145 prostate", "value": "> 100", "unit": "µM"}, {"measurement": "TGI", "setting": "DU-145 prostate", "value": "> 100", "unit": "µM"}, {"measurement": "GI50", "setting": "SN12C renal", "value": "> 100", "unit": "µM"}, {"measurement": "TGI", "setting": "SN12C renal", "value": "> 100", "unit": "µM"}]}]}
